Measured values published in patent US11473153B2, “Device and methods of using device for separation of bacteria from complex samples” (priority 2014, dated 2022).
Where two headings read alike, the source gives them in different places.

Tests used:
[1] = system: bacteria; details: cited from earlier work
[2] = system: unspecific bacteria grown from dirt
[3] = system: S. typhimurium; details: Eth20%/Media + Salmonella/Media, 1.5 ml device
[4] = system: E. coli O157H7; details: Eth20%/GroundMeat + O157H7/Media, 30 min, 1.5 ml device
[5] = system: S. typhimurium; test: Microliter-scale sample chamber device, separation run (FIG. 12); type: cell-based; details: 30 minutes
Procedure: Experimental and control separation runs were performed in the device and results recorded as disclosed below. FIG. 12 depicts an experimental run on the device in which 2 mM of alpha-methylaspartate (chemo-attractant) was diluted in chemotaxis buffer was introduced in the extraction chamber. […] Deionized water was introduced in the repellent chamber. After 30 minutes, the contents of each chamber was recovered and the amount of bacteria in each chamber counted.

[6] = system: S. typhimurium; test: Four-channel membrane microfluidic chip, separation by chemoattractant (FIG. 9B); type: cell-based
Source text: FIG. 9A depicts a diagram of a microfluidic chip with four channels that overlap in the vertical direction, with each channel being separated by a semipermeable membrane. Each channel has an inlet/outlet on either end of the chip, each channel can be filled using regular pipettes. The four channels overlap in the vertical direction to maximize contact are amongst channels and optimizes the time required for the chemical gradients to form. The membranes between the channels prevent fluid flow while allowing the chemical gradients to form and bacteria to migrate between the channels. […] The contents of each channel was extracted after approximately 30 minutes and the bacterial density measured using a cell counter (left hand bar in each column). […] Control experiments were also performed to evaluate random dispersion of bacteria to channels 1 and 3 filled with buffer; very few of the bacteria moved away from channel 2 without the present of the chemoattractant (middle bars in each column).

Question: What does the source list for N[C@@H](Cc1c[nH]c2ccccc12)C(=O)O [Tryptophan]?
Answer: Chemoattractant (bacteria for which the substance is one) [1]: B. subtilis, C. vinosum; Chemorepellent (bacteria for which the substance is one) [1]: E. coli, S. typhimurium

Question: For O [OH^−], which “Chemoattractant (bacteria for which the substance is one)” value (from here on “Chemoattractant”) [1] is on record?
Answer: Its value is “R. sphaeroids”.

Question: What about the “Chemorepellent (bacteria for which the substance is one)” value (“Chemorepellent” for short) [1] of the same compound?
Answer: The value was “E. coli, C. vinosum”.

Question: Which results are given for [Ni+2] [Ni^2]?
Answer: Chemoattractant (bacteria for which the substance is one) [1]: (no effect on S. typhimurium); Chemorepellent (bacteria for which the substance is one) [1]: E. coli

Question: Which “Chemoattractant” value [1] does the source give for CC(C)C[C@H](N)C(=O)O [Leucine] here?
Answer: Its value is “B. subtilis”.

Question: What about the “Chemorepellent” value [1] of the same compound?
Answer: The value was “E. coli, S. typhimurium”.

Question: With CC(C)[C@H](N)C(=O)O [Valine] as the compound, how does the “Chemoattractant” value [1] read?
Answer: Its value is “B. subtilis”.

Question: And the “Chemorepellent” value [1]?
Answer: The value was “E. coli, S. typhimurium”.

Question: Which results are given for CCO [Eth20%, Ethanol]?
Answer: movement of bacteria over time ([2]; 50% ethanol chemorepellent gradient, FIG. 4B/4C): clearly seen moving away from the ethanol; state of bacteria next to the maximum concentration of ethanol ([2]; 50% ethanol chemorepellent in horizontal channel, FIG. 4B): non-motile and putatively dead; E: extraction efficiency ([3]; 25 min): 76.4% + −8%; E: extraction efficiency ([3]; 30 min): 87.9% + −7%; E: extraction efficiency ([4]; Meat diluted 1:1): 77.60%; E: extraction efficiency ([4]; Meat diluted 1:2): 109.80%; E: extraction efficiency ([4]; Meat diluted 1:3): 57.00%

Question: Which “Chemoattractant” value [1] does the source give for CC(=O)O [Acetate] here?
Answer: The value was “C. vinosum”.

Question: What about the “Chemorepellent” value [1] of the same compound?
Answer: The value was “E. coli, S. typhimurium”.

Question: With O=C(O)CC(O)(CC(=O)O)C(=O)O [Citrate] as the compound, how does the “Chemoattractant” value [1] read?
Answer: The value was “S. typhimurium”.

Question: What about the “Chemorepellent” value [1] of the same compound?
Answer: The value was “(no effect on E. coli)”.

Question: Which results are given for OC[C@H]1O[C@H](O[C@H]2[C@H](O)[C@@H](O)C(O)O[C@@H]2CO)[C@H](O)[C@@H](O)[C@@H]1O (mixture of isomers) [Maltose]?
Answer: Chemoattractant (bacteria for which the substance is one) [1]: E. coli; Chemorepellent (bacteria for which the substance is one) [1]: (no effect on S. typhimurium)

Question: Which results are given for O=C(O)c1ccccc1 [Benzoate]?
Answer: Chemoattractant (bacteria for which the substance is one) [1]: P. putida; Chemorepellent (bacteria for which the substance is one) [1]: E. coli, S. typhimurium

Question: For [Co+2] [Co^2+], which “Chemoattractant” value [1] is on record?
Answer: Its value is “(no effect on S. typhimurium)”.

Question: And the “Chemorepellent” value [1]?
Answer: The value was “E. coli”.

Question: With Oc1ccccc1 [Phenol] as the compound, how does the “Chemoattractant” value [1] read?
Answer: Its value is “E. coli”.

Question: And the “Chemorepellent” value [1]?
Answer: The value was “S. typhimurium”.

Question: What does the source list for CC(N)(CC(=O)O)C(=O)O (stereo not drawn) [α-methyl aspartate]?
Answer: concentration of bacteria in the extraction chamber normalized to the initial concentration ([5]; 2 mM in chemotaxis buffer in extraction chamber, sample chamber about 110 μL): about 2 times higher than the initial concentration; bacteria in the repellent chamber ([5]; 2 mM in extraction chamber, deionized water in repellent chamber): no bacteria were found; bacterial density per channel (cell counter) ([6]; 2 mM in channel 1, S. typhimurium in channel 2, buffer in channel 3, approximately 30 minutes): most bacteria crossed over to the channel containing maximal concentration of chemoattractant; bacterial density per channel, gravity control ([6]; buffer and chemoattractant introduced through the opposite channels): the results were the same

Question: Which “Chemoattractant” value [1] does the source give for [H+] [H^+] here?
Answer: Its value is “R. sphaeroids”.

Question: What about the “Chemorepellent” value [1] of the same compound?
Answer: The value was “E. coli, C. vinosum”.
